One assay relates to SP 4014. Briefly: organism not typed. The procedure: (§1) All the strains (see below) used in minimal inhibitory concentration (MIC) assays (Ovchinnikov et al., 2017, Front Microbiol., 8, p774, doi:10.3389/fmicb.2017.00774) were grown in BHI medium (Oxoid) at 30° C. without shaking. The tested strains were obtained from the LMG collection. […] NisinZ and micrococcin P1 were purified from source. Synthesized peptides were solubilized to concentrations of 10.0-0.1 mg/ml in 0.1% (vol/vol) trifluoroacetic acid and stored at −20° C. until use. Garvicin KS is made up of 3 peptides:
(§2) Bacteriocin activity was determined using a microtitre plate assay. The plates were incubated at 30° C. for 8 h and the growth was measured spectrophotometrically at 600 nm (A600) with 15 min intervals using SPECTROstarNano (BMG LABTECH, Germany). The MIC was defined as the bacteriocin concentration that inhibited the growth of the indicator strain by at least 50% in 200 μl culture (i.e., 50% of the turbidity of the control culture without bacteriocin).

The subject of the next assay is SP 4013. Briefly: organism not typed. The procedure:
as §1, §2

In the next assay the test system is SP 4012. Nature of the assay: organism not typed. The procedure: as §1, §2
In another assay the test system is Sa3324. Nature of the assay: microbe, parasite or virus in culture. On the procedure: as §1, §2
In the next assay the test system is Sa ATCC 33591. Briefly: microbe, parasite or virus in culture. On the procedure:
as §1, §2

For the next assay, the system named is Sa 3242. Briefly: microbe, parasite or virus in culture. The procedure: as §1, §2
A further assay deals with Sa3323. Nature of the assay: microbe, parasite or virus in culture. On the procedure:
as §1, §2

The test system of the next assay is SH 4016. Nature of the assay: microbe, parasite or virus in culture. The procedure: as §1, §2
A further assay concerns SH 4015. Briefly: microbe, parasite or virus in culture. On the procedure:
as §1, §2

A further assay deals with Sa 3328. Nature of the assay: microbe, parasite or virus in culture. The procedure: as §1, §2
For assay [1], the system named is EntEJ97/EntK1 resistant mutants of E. faecalis and E. faecium. Nature of the assay: Challenge of EntEJ97/EntK1 resistant mutants with non-related bacteriocins. The class given is cell-based. The settings on record: all HR and LR mutants, compared to WT.
Description: To analyze whether this active site is important for bacteriocin sensitivity, we changed the invariant residues in this motif —H18-E19-F20-G21-H22—one by one and altogether in the enterococcal RseP (invariant residues underlined) to alanine and then assessed for bacteriocin sensitivity.
Another assay relates to E. hirae (4). On the procedure:
as §1, §2

The next assay has as its system S. pseudointermedius (3). On the procedure:
as §1, §2

A further assay has as its system E. faecalis (2). The settings on record: 2. The procedure:
as §1, §2

The test system of another assay is Listeria spp. (3). The procedure: as §1, §2
Another assay has as its system E. faecium (2). On the procedure: as §1, §2
A further assay relates to KAVA. Nature of the assay: MIC microtitre plate assay, pathogenic isolates. The class given is cell-based. On the procedure:
The tested strains were obtained from the LMG collection. […] NisinZ and micrococcin P1 were purified from source. […] Garvicin KS is made up of 3 peptides:
Bacteriocin activity was determined using a microtitre plate assay. The plates were incubated at 30° C. for 8 h and the growth was measured spectrophotometrically at 600 nm (A600) with 15 min intervals using SPECTROstarNano (BMG LABTECH, Germany).

This note sets out measurements from US11648289B2, “Antibacterial method” (priority 2016, dated 2023).

≈ marks a conversion by molar mass, not a printed value. Where two headings read alike, the source gives them in different places. No end group written: not given here.

Consider `C=C(NC(=O)[C@@H](NC(=O)[C@H](Cc1c[nH]cn1)NC(=O)[C@@H](NC(=O)[C@H](CO)NC(=O)[C@@H]1CS[C@@H](C)[C@H]2NC(=O)[C@H](C)NC(=O)[C@H](NC(=O)[C@H](CCCCN)NC(=O)[C@H](CCSC)NC(=O)[C@H](CC(N)=O)NC(=O)[C@@H]3CS[C@@H](C)[C@@H](NC(=O)[C@H](CCCCN)NC(=O)[C@@H]4CS[C@@H](C)[C@@H](NC(=O)[C@@H]5CSC[C@@H](NC(=O)/C(=C/C)NC(=O)[C@@H](N)[C@@H](C)CC)C(=O)N[C@@H]([C@@H](C)CC)C(=O)NC(=C)C(=O)N[C@@H](CC(C)C)C(=O)N5)C(=O)N5CCC[C@H]5C(=O)NCC(=O)N4)C(=O)NCC(=O)N[C@@H](C)C(=O)N[C@@H](CC(C)C)C(=O)N[C@@H](CCSC)C(=O)NCC(=O)N3)[C@H](C)SC[C@H](NC2=O)C(=O)N[C@@H](CC(N)=O)C(=O)N1)[C@@H](C)CC)C(C)C)C(=O)N[C@@H](CCCCN)C(=O)O` [NisinZ, reference compound], for which the MIC is 0.4 mg/L (≈ 0.12 µM) against SP 4014 (SP 4014 (S. pseudointermedius)); 0.4 mg/L (≈ 0.12 µM) against SP 4013 (SP 4013 (S. pseudointermedius)); 0.4 mg/L (≈ 0.12 µM) in the assay on SP 4012 (SP 4012 (S. pseudointermedius)); 1.6 mg/L (≈ 0.48 µM) against Sa3324 (Sa3324 (S. aureus)); 0.8 mg/L (≈ 0.24 µM) in the assay on Sa ATCC 33591 (Sa ATCC 33591 (S. aureus)); 3.1 mg/L (≈ 0.931 µM) in the assay on Sa 3242 (Sa 3242 (S. aureus)). Also, the MIC with Sa3323 (Sa3323 (S. aureus)) is 6.25 mg/L (≈ 1.88 µM); against SH 4016 (SH 4016 (S. haemolyticus)), 1.6 to 3.1 mg/L; against SH 4015 (SH 4015 (S. haemolyticus)), 1.6 to 3.1 mg/L; against Sa 3328 (Sa 3328 (S. aureus)), 0.8 mg/L (≈ 0.24 µM).

Turning to garvicin ML, the “sensitivity of EntEJ97/EntK1 resistant mutants to non-related bacteriocin” value in [1] is reported as “as sensitive as the WT strains”.

In the case of “MKFKFNPTGTIVKKLTQYEINWYKQQYGRYPWERPVA [K1-EJ hybrid]”, the MIC in the assay on E. hirae (4) was 0.1 to 0.4 mg/L; against S. pseudointermedius (3), 12.5 to 25 mg/L; in the assay with E. faecalis (2) it was 1.6 to 3.1 mg/L; in the assay on Listeria spp. (3), 6.25 to 25 mg/L; against E. faecium (2) (E. faecium (2), Table 6B), less than 0.05 to 0.4 mg/L; with SP 4014, 12.5 mg/L. Moreover, the MIC was 12.5 mg/L against SP 4013; 25 mg/L in the assay with SP 4012; greater than 50 mg/L in the assay with KAVA (KAVA); 6.25 mg/L with Sa3324; greater than 50 mg/L with Sa ATCC 33591 (ATCC 33591); 3.1 mg/L in the assay on Sa 3242. For the same molecule, the MIC in the assay on Sa3323 is 3.2 to 6.25 mg/L; with SH 4016, 0.8 to 1.6 mg/L; in the assay on SH 4015 it was 0.8 mg/L; against Sa 3328 it was 3.1 mg/L.

For “MLAKIKAMIKKFPNPYTLAAKLTTYEIAWFKNKHGYYPWEIPRC [EJ-K1 hybrid]”, the MIC was 3.2 to 6.3 mg/L in the assay with E. hirae (4); 50 mg/L in the assay with S. pseudointermedius (3); 25 to 50 mg/L in the assay on E. faecalis (2); 3.15 mg/L with E. faecium (2) (2); greater than 50 mg/L with SP 4014; greater than 50 mg/L against SP 4013. Also, the MIC against SP 4012 is greater than 50 mg/L; in the assay on KAVA (KAVA), greater than 50 mg/L; against Sa3324, 12.5 mg/L; with Sa ATCC 33591 (ATCC 33591) it was greater than 50 mg/L; in the assay on Sa 3242, 12.5 mg/L; against Sa3323, 3.2 to 6.25 mg/L. Further, the MIC in the assay on SH 4016 is 50 mg/L; against SH 4015, 50 mg/L; with Sa 3328 it was 6.25 mg/L.

For `C/C=C(\NC(=O)c1csc(-c2csc(-c3ccc4c(n3)-c3csc(n3)[C@H]([C@@H](C)O)NC(=O)c3csc(n3)[C@H](C(C)C)NC(=O)c3csc(n3)/C(=C/C)NC(=O)[C@H]([C@@H](C)O)NC(=O)c3csc-4n3)n2)n1)C(=O)NC[C@@H](C)O` [micrococcinP1, Micrococcin P1, reference compound], the MIC in the assay on SP 4014 was 0.8 mg/L (≈ 0.699 µM); with SP 4013, 0.4 mg/L (≈ 0.35 µM); against SP 4012 it was 0.4 mg/L (≈ 0.35 µM); against KAVA, greater than 12.5 mg/L; against Sa3324 (Staphylococcus aureus), 0.1 mg/L (≈ 0.0874 µM); in the assay with Sa ATCC 33591 (Staphylococcus aureus, ATCC33591), 0.4 mg/L (≈ 0.35 µM). Also, the MIC was determined as 0.2 mg/L (≈ 0.175 µM) in the assay on Sa 3242 (Staphylococcus aureus, 3242); 0.1 mg/L (≈ 0.0874 µM) with Sa3323 (Staphylococcus aureus); 1.6 mg/L (≈ 1.4 µM) against SH 4016 (Staphylococcus haemolyticus); 1.6 mg/L (≈ 1.4 µM) against SH 4015 (Staphylococcus haemolyticus); 0.1 mg/L (≈ 0.0874 µM) in the assay on Sa 3328 (Staphylococcus aureus, 3328).

Take “MIKKFPNPYTLAAKLTTYEINWYKQQYGRYPWERPVA [EntEJ97short]”: the MIC in the assay with E. hirae (4) was 0.1 to 0.4 mg/L; against S. pseudointermedius (3), 1.6 to 31 mg/L; against E. faecalis (2), 1.6 mg/L; against Listeria spp. (3), greater than 50 mg/L; with E. faecium (2) (2), 12.5 to 25 mg/L; in the assay on SP 4014 it was 1.6 to 3.1 mg/L. For the same molecule, the MIC in the assay with SP 4013 is 3.1 mg/L; in the assay on SP 4012 it was 3.1 mg/L; against KAVA (KAVA) it was greater than 50 mg/L; against Sa3324 it was 6.25 mg/L; against Sa ATCC 33591 (ATCC 33591), greater than 50 mg/L; against Sa 3242, 12.5 mg/L. Besides, the MIC is 3.1 to 6.25 mg/L in the assay with Sa3323, 1.6 to 3.1 mg/L against SH 4016, 1.6 to 3.1 mg/L with SH 4015 and 3.1 mg/L against Sa 3328.

B1: GarKS: Garvicin KS is made up of 3 peptides (SEQ ID NO:43, 44, 45) (peptide, listed as Lactococcus garvieae)
chain 1: MGAIIKAGAKIVGKGVLGGGASWLGWNVGEKIWK
chain 2: MGAIIKAGAKIIGKGLLGGAAGGATYGGLKKIFG
chain 3: MGAIIKAGAKIVGKGALTGGGVWLAEKLFGGK
Consider B1, for which the MIC was 6.25 mg/L in the assay with SP 4014 (SP 4014 (S. pseudointermedius)); 6.25 mg/L in the assay on SP 4013 (SP 4013 (S. pseudointermedius)); 6.25 mg/L in the assay with SP 4012 (SP 4012 (S. pseudointermedius)); 6.25 to 12.5 mg/L in the assay on KAVA (KAVA); 6.25 mg/L in the assay on Sa3324 (Sa3324 (S. aureus)); 12.5 mg/L with Sa ATCC 33591 (Sa ATCC 33591 (S. aureus)). The MIC with Sa 3242 (Sa 3242 (S. aureus)) came to 3.1 mg/L; with Sa3323 (Sa3323 (S. aureus)) it was 6.25 mg/L; with SH 4016 (SH 4016 (S. haemolyticus)) it was 6.25 mg/L; with SH 4015 (SH 4015 (S. haemolyticus)), 6.25 mg/L; in the assay on Sa 3328 (Sa 3328 (S. aureus)), 3.1 mg/L.
